Experiments:
Test in all cases: Test F preemergence
Conditions in all cases: 21 days, scale 0 to 100
nutsedge, purple = format: in vivo, Cyperus rotundus
Source text: (§1) Seeds of plant species selected from bermudagrass (Cynodon dactylon), surinam grass (Brachiaria decumbens), large (Lg) crabgrass (Digitaria sanguinalis), crabgrass, naked (naked crabgrass, Digitaria nuda), foxtail, green (green foxtail, Setaria viridis), johnsongrass (Sorghum halepense), kochia (Kochia scoparia), morningglory (pitted morningglory, Ipomoea lacunosa), nutsedge, purple (purple nutsedge, Cyperus rotundus), ragweed (common ragweed, Ambrosia elatior), mustard, black (black mustard, Brassica nigra), guineagrass (Panicum maximum), dallisgrass (Paspalum dilatatum), barnyardgrass (Echinochloa crus-galli), sandbur (southern sandbur, Cenchrus echinatus), sowthistle (common sowthistle, Sonchus oleraceous), Italian ryegrass (Lolium multiflorum), signalgrass (broadleaf signalgrass, Brachiaria platyphylla), dayflower (Virginia (VA) dayflower, Commelina virginica), bluegrass (annual bluegrass, Poa annua), quackgrass (Elytrigia repens), mallow (common mallow, Malva sylvestris), buckwheat, wild (wild buckwheat, Polygonum convolvulus), leafy spurge (Euphorbia esula), chickweed (common chickweed, Stellaria media), wild poinsettia (Euphorbia heterophylla), and pigweed (Amaranthus retroflexus) were planted into a blend of loam soil and sand and treated preemergence with test chemicals formulated in a non-phytotoxic solvent mixture which included a surfactant.
(§2) Treated plants and controls were maintained in a greenhouse for 21 days, after which time all species were compared to controls and visually evaluated. Plant response ratings, summarized in Table F, are based on a scale of 0 to 100 where 0 is no effect and 100 is complete control. A dash (-) response means no test result.

bermudagrass = format: in vivo, Cynodon dactylon
Source text: as §1, §2

chickweed = format: in vivo, Stellaria media
Source text: as §1, §2

mallow = format: in vivo, Malva sylvestris
Source text: as §1, §2

ragweed = format: in vivo, Ambrosia elatior
Source text: as §1, §2

mustard, black = format: in vivo, Brassica nigra
Source text: as §1, §2

dallisgrass = format: in vivo, Paspalum dilatatum
Source text: as §1, §2

leafy spurge = format: in vivo, Euphorbia esula
Source text: as §1, §2

buckwheat, wild = format: in vivo, Polygonum convolvulus
Source text: as §1, §2

large (Lg) crabgrass = format: in vivo, Digitaria sanguinalis
Source text: as §1, §2

guineagrass = format: in vivo, Panicum maximum
Source text: as §1, §2

pigweed = format: in vivo, Amaranthus retroflexus
Source text: as §1, §2

wild poinsettia = format: in vivo, Euphorbia heterophylla
Source text: as §1, §2

Italian ryegrass = format: in vivo, Lolium multiflorum
Source text: as §1, §2

kochia = format: in vivo, Kochia scoparia
Source text: as §1, §2

bluegrass = format: in vivo, Poa annua
Source text: as §1, §2

signalgrass = format: in vivo, Brachiaria platyphylla
Source text: as §1, §2

quackgrass = format: in vivo, Elytrigia repens
Source text: as §1, §2

sandbur = format: in vivo, Cenchrus echinatus
Source text: as §1, §2

dayflower = format: in vivo, Commelina virginica
Source text: as §1, §2

## N#Cc1cccc(Oc2ncc(Cl)cn2)c1-n1cc(C(F)(F)F)cn1 [Compound 58, 3-[(5-chloro-2-pyrimidinyl)oxy]-2-[4-(trifluoromethyl)-1H-pyrazol-1-yl]benzonitrile]
nutsedge, purple; 16 g ai/ha
  Plant response rating, Nutsedge, Purple: 0
nutsedge, purple; 31 g ai/ha
  Plant response rating, Nutsedge, Purple: 60
nutsedge, purple; 62 g ai/ha
  Plant response rating, Nutsedge, Purple: 40
nutsedge, purple; 125 g ai/ha
  Plant response rating, Nutsedge, Purple: 70
nutsedge, purple; 250 g ai/ha
  Plant response rating, Nutsedge, Purple: 80
bermudagrass; 16 g ai/ha
  Plant response rating, Bermudagrass: 95
bermudagrass; 31 g ai/ha
  Plant response rating, Bermudagrass: 100
bermudagrass; 62 g ai/ha
  Plant response rating, Bermudagrass: 100
bermudagrass; 125 g ai/ha
  Plant response rating, Bermudagrass: 100
bermudagrass; 250 g ai/ha
  Plant response rating, Bermudagrass: 100
chickweed; 16 g ai/ha
  Plant response rating, Chickweed: 100
chickweed; 31 g ai/ha
  Plant response rating, Chickweed: 100
chickweed; 62 g ai/ha
  Plant response rating, Chickweed: 100
chickweed; 125 g ai/ha
  Plant response rating, Chickweed: 100
chickweed; 250 g ai/ha
  Plant response rating, Chickweed: 100
mallow; 16 g ai/ha
  Plant response rating, Mallow: 60
mallow; 31 g ai/ha
  Plant response rating, Mallow: 100
mallow; 62 g ai/ha
  Plant response rating, Mallow: 98
mallow; 125 g ai/ha
  Plant response rating, Mallow: 100
mallow; 250 g ai/ha
  Plant response rating, Mallow: 100
ragweed; 16 g ai/ha
  Plant response rating, Ragweed: 60
ragweed; 31 g ai/ha
  Plant response rating, Ragweed: 65
ragweed; 62 g ai/ha
  Plant response rating, Ragweed: 70
ragweed; 125 g ai/ha
  Plant response rating, Ragweed: 75
ragweed; 250 g ai/ha
  Plant response rating, Ragweed: 95
mustard, black; 16 g ai/ha
  Plant response rating, Mustard, Black: 100
mustard, black; 31 g ai/ha
  Plant response rating, Mustard, Black: 100
mustard, black; 62 g ai/ha
  Plant response rating, Mustard, Black: 100
mustard, black; 125 g ai/ha
  Plant response rating, Mustard, Black: 100
mustard, black; 250 g ai/ha
  Plant response rating, Mustard, Black: 100
dallisgrass; 16 g ai/ha
  Plant response rating, Dallisgrass: 90
dallisgrass; 31 g ai/ha
  Plant response rating, Dallisgrass: 100
dallisgrass; 62 g ai/ha
  Plant response rating, Dallisgrass: 100
dallisgrass; 125 g ai/ha
  Plant response rating, Dallisgrass: 100
dallisgrass; 250 g ai/ha
  Plant response rating, Dallisgrass: 100
Leafy spurge; 16 g ai/ha
  Plant response rating, Leafy Spurge: 100
Leafy spurge; 31 g ai/ha
  Plant response rating, Leafy Spurge: 95
Leafy spurge; 62 g ai/ha
  Plant response rating, Leafy Spurge: 100
Leafy spurge; 125 g ai/ha
  Plant response rating, Leafy Spurge: 100
Leafy spurge; 250 g ai/ha
  Plant response rating, Leafy Spurge: 100
buckwheat, wild; 16 g ai/ha
  Plant response rating, Buckwheat, Wild: 90
buckwheat, wild; 31 g ai/ha
  Plant response rating, Buckwheat, Wild: 100
buckwheat, wild; 62 g ai/ha
  Plant response rating, Buckwheat, Wild: 100
buckwheat, wild; 125 g ai/ha
  Plant response rating, Buckwheat, Wild: 100
buckwheat, wild; 250 g ai/ha
  Plant response rating, Buckwheat, Wild: 100
Large (Lg) crabgrass; 16 g ai/ha
  Plant response rating, Crabgrass, Large: 100
Large (Lg) crabgrass; 31 g ai/ha
  Plant response rating, Crabgrass, Large: 100
Large (Lg) crabgrass; 62 g ai/ha
  Plant response rating, Crabgrass, Large: 100
Large (Lg) crabgrass; 125 g ai/ha
  Plant response rating, Crabgrass, Large: 100
Large (Lg) crabgrass; 250 g ai/ha
  Plant response rating, Crabgrass, Large: 100
guineagrass; 16 g ai/ha
  Plant response rating, Guineagrass: 100
guineagrass; 31 g ai/ha
  Plant response rating, Guineagrass: 100
guineagrass; 62 g ai/ha
  Plant response rating, Guineagrass: 100
guineagrass; 125 g ai/ha
  Plant response rating, Guineagrass: 100
guineagrass; 250 g ai/ha
  Plant response rating, Guineagrass: 100
pigweed; 16 g ai/ha
  Plant response rating, Pigweed: 100
pigweed; 31 g ai/ha
  Plant response rating, Pigweed: 100
pigweed; 62 g ai/ha
  Plant response rating, Pigweed: 100
pigweed; 125 g ai/ha
  Plant response rating, Pigweed: 100
pigweed; 250 g ai/ha
  Plant response rating, Pigweed: 100
Wild poinsettia; 16 g ai/ha
  Plant response rating, Poinsettia, Wild: 25
Wild poinsettia; 31 g ai/ha
  Plant response rating, Poinsettia, Wild: 65
Wild poinsettia; 62 g ai/ha
  Plant response rating, Poinsettia, Wild: 100
Wild poinsettia; 125 g ai/ha
  Plant response rating, Poinsettia, Wild: 100
Wild poinsettia; 250 g ai/ha
  Plant response rating, Poinsettia, Wild: 100
Italian ryegrass; 16 g ai/ha
  Plant response rating, Ryegrass, Italian: 35
Italian ryegrass; 31 g ai/ha
  Plant response rating, Ryegrass, Italian: 95
Italian ryegrass; 62 g ai/ha
  Plant response rating, Ryegrass, Italian: 98
Italian ryegrass; 125 g ai/ha
  Plant response rating, Ryegrass, Italian: 100
Italian ryegrass; 250 g ai/ha
  Plant response rating, Ryegrass, Italian: 100
kochia; 16 g ai/ha
  Plant response rating, Kochia: 98
kochia; 31 g ai/ha
  Plant response rating, Kochia: 100
kochia; 62 g ai/ha
  Plant response rating, Kochia: 100
kochia; 125 g ai/ha
  Plant response rating, Kochia: 100
kochia; 250 g ai/ha
  Plant response rating, Kochia: 100
bluegrass; 16 g ai/ha
  Plant response rating, Bluegrass: 50
bluegrass; 31 g ai/ha
  Plant response rating, Bluegrass: 80
bluegrass; 62 g ai/ha
  Plant response rating, Bluegrass: 98
bluegrass; 125 g ai/ha
  Plant response rating, Bluegrass: 98
bluegrass; 250 g ai/ha
  Plant response rating, Bluegrass: 100
signalgrass; 16 g ai/ha
  Plant response rating, Signalgrass: 95
signalgrass; 31 g ai/ha
  Plant response rating, Signalgrass: 100
signalgrass; 62 g ai/ha
  Plant response rating, Signalgrass: 100
signalgrass; 125 g ai/ha
  Plant response rating, Signalgrass: 100
signalgrass; 250 g ai/ha
  Plant response rating, Signalgrass: 100
quackgrass; 16 g ai/ha
  Plant response rating, Quackgrass: 50
quackgrass; 31 g ai/ha
  Plant response rating, Quackgrass: 70
quackgrass; 62 g ai/ha
  Plant response rating, Quackgrass: 98
quackgrass; 125 g ai/ha
  Plant response rating, Quackgrass: 100
quackgrass; 250 g ai/ha
  Plant response rating, Quackgrass: 100
sandbur; 16 g ai/ha
  Plant response rating, Sandbur: 10
sandbur; 31 g ai/ha
  Plant response rating, Sandbur: 35
sandbur; 62 g ai/ha
  Plant response rating, Sandbur: 95
sandbur; 125 g ai/ha
  Plant response rating, Sandbur: 100
sandbur; 250 g ai/ha
  Plant response rating, Sandbur: 100
dayflower; 16 g ai/ha
  Plant response rating, Dayflower, VA: 90
dayflower; 31 g ai/ha
  Plant response rating, Dayflower, VA: 95
dayflower; 62 g ai/ha
  Plant response rating, Dayflower, VA: 100
dayflower; 125 g ai/ha
  Plant response rating, Dayflower, VA: 100
dayflower; 250 g ai/ha
  Plant response rating, Dayflower, VA: 100

From patent US9695155B2, “Herbicidal substituted pyrimidinyloxy benzene compounds” (E. I. DU PONT DE NEMOURS AND COMPANY, priority 2013, dated 2017)
